One block for each compound: values may come before it.
Legend:
hA1AR = molecular target: T1, hA1AR (Homo sapiens, UniProt P30542); experiment: Radioligand binding at hA1AR
T1 sequence (P30542 1-326): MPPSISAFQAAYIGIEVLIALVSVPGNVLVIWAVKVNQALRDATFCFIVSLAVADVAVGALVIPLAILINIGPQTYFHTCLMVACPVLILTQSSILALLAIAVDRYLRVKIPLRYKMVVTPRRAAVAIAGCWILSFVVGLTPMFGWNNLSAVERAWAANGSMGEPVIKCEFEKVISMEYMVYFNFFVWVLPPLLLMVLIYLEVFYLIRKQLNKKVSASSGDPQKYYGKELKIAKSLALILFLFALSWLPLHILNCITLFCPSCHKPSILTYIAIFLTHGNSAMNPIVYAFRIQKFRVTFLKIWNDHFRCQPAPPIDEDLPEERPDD

hA2AAR = hA2AAR (Homo sapiens, UniProt P29274); experiment: Radioligand binding at hA2AAR
Sequence of hA2AAR (P29274 whole entry): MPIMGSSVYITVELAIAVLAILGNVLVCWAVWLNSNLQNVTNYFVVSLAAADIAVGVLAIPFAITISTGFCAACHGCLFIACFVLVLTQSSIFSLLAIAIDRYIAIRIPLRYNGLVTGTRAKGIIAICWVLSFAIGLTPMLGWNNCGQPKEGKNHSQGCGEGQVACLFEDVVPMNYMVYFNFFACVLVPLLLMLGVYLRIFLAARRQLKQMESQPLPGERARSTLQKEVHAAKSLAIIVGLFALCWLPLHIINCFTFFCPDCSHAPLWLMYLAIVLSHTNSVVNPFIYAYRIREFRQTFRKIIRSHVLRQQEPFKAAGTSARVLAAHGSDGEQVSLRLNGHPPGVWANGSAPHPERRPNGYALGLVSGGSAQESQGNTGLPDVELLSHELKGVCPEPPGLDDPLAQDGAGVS

hA3AR [1] = molecular target: T2, hA3AR (Homo sapiens, UniProt P0DMS8); experiment: Radioligand binding at hA3AR
T2 sequence (P0DMS8 1-318): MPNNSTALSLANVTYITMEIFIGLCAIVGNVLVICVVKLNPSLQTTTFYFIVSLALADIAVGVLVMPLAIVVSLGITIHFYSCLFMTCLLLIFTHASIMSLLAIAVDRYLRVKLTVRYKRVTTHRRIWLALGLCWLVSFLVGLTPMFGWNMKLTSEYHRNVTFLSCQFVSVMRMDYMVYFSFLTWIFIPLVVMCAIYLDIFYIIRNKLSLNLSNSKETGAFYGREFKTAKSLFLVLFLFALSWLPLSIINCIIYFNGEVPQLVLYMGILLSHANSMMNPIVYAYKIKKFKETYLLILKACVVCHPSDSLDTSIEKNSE

hA3AR [2] = molecular target: T2, hA3AR; type: cell-based; details: at 10 μM
mA1AR = molecular target: T3, mA1AR (Mus musculus, UniProt Q60612); details: read-out: Affinity (Ki) mA1; ref Melman et al.[21]; cited from earlier work
T3 sequence (Q60612 1-326): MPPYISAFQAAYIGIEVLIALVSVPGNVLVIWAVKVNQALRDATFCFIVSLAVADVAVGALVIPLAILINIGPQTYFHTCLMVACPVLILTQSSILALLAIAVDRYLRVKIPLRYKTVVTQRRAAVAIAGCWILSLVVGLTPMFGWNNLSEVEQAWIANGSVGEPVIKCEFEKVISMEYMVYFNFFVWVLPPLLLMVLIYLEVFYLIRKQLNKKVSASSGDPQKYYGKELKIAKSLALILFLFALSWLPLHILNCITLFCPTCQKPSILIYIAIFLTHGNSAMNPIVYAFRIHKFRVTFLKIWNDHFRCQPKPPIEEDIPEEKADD

mA2AAR = mA2AAR (Mus musculus, UniProt Q60613); details: read-out: Affinity (Ki) mA2A; ref Melman et al.[21]; cited from earlier work
Sequence of mA2AAR (Q60613 whole entry): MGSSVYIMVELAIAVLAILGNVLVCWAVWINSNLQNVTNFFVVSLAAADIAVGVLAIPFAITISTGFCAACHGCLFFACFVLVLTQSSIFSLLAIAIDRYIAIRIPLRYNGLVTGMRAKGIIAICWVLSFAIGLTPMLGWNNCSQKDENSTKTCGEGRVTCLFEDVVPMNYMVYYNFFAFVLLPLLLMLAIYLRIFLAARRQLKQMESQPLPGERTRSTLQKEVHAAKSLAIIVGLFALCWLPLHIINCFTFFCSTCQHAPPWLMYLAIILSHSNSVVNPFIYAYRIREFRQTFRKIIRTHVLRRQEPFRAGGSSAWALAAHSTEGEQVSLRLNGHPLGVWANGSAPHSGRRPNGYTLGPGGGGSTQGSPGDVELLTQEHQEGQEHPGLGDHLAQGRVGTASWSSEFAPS

mA3AR = molecular target: T4, mA3AR (Mus musculus, UniProt Q61618); details: read-out: Affinity (Ki) mA3; ref Melman et al.[21]; cited from earlier work
T4 sequence (Q61618 1-319): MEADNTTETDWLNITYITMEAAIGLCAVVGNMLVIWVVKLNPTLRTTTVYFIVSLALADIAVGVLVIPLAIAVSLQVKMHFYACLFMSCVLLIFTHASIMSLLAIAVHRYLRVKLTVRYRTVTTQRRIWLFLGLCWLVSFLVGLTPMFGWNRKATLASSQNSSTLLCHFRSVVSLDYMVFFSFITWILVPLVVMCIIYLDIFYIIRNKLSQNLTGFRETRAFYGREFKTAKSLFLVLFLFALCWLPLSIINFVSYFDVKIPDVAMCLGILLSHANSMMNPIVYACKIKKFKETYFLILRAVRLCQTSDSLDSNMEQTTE

reduction of A3AR binding affinity compared to the H analogue 9 (hA3AR [1]): 12 fold
SMILES: CNC(=O)[C@@]12C[C@@H]1[C@@H](n1cnc3c(NC)nc(C#Cc4ccc(C(C)(C)C)cc4)nc31)[C@H](O)[C@@H]2O [Compound 22, (1S,2R,3S,4R,5S)-4-(2-((4-tert-Butylphenyl)ethynyl)-6-(methylamino)-9H-purin-9-yl)-2,3-dihydroxy-N-methylbicyclo[3.1.0]hexane-1-carboxamide]

Ki (hA3AR [1]; Affinity (Ki) hA3, [125I]I-AB-MECA, CHO cells, n = 3–5): ~0.6 nM
SMILES: CNC(=O)[C@@]12C[C@@H]1[C@@H](n1cnc3c(NC)nc(C#Cc4ccc(F)cc4)nc31)[C@H](O)[C@@H]2O [Compound 13, (1S,2R,3S,4R,5S)-4-(2-((4-Fluorophenyl)ethynyl)-6-(methylamino)-9H-purin-9-yl)-2,3-dihydroxy-N-methylbicyclo[3.1.0]hexane-1-carboxamide]

inhibition at 10 µM (hA1AR; read-out: % inhibition of radioligand binding hA1, at 10 μM, n = 3): < 20%
inhibition at 10 µM (hA2AAR; read-out: % inhibition of radioligand binding hA2A, at 10 μM, n = 3): < 20%
SMILES: CNC(=O)[C@@]12C[C@@H]1[C@@H](n1cnc3c(NC)nc(C#Cc4ccccc4)nc31)[C@H](O)[C@@H]2O [Compound 9, (1S,2R,3S,4R,5S)-2,3-Dihydroxy-N-methyl-4-(6-(methylamino)-2-(phenylethynyl)-9H-purin-9-yl)bicyclo[3.1.0]hexane-1-carboxamide]

More lines, now with the values behind:

SMILES: CNC(=O)[C@@]12C[C@@H]1[C@@H](n1cnc3c(NCc4cccc(Cl)c4)nc(C#Cc4ccc(-c5ccccc5)cc4)nc31)[C@H](O)[C@@H]2O [Compound 34, (1S,2R,3S,4R,5S)-4-(2-(Biphenyl-4-ylethynyl)-6-(3-chlorobenzylamino)-9H-purin-9-yl)-2,3-dihydroxy-N-methylbicyclo[3.1.0]hexane-1-carboxamide]
activity at A1 (hA1AR): inactive
activity at A2A (hA2AAR): inactive

SMILES: CNC(=O)[C@@]12C[C@@H]1[C@@H](n1cnc3c(NCc4cccc(Cl)c4)nc(C#Cc4ccccc4)nc31)[C@H](O)[C@@H]2O [Compound 27, (1S,2R,3S,4R,5S)-4-(6-(3-Chlorobenzylamino)-2-(phenylethynyl)-9H-purin-9-yl)-2,3-dihydroxy-N-methylbicyclo[3.1.0]hexane-1-carboxamide]
Ki (hA1AR): > 10000 nM

SMILES: CNC(=O)[C@@]12C[C@@H]1[C@@H](n1cnc3c(NCc4cccc(Cl)c4)nc(C#Cc4ccc(F)c(F)c4)nc31)[C@H](O)[C@@H]2O [Compound 31, (1S,2R,3S,4R,5S)-4-(6-(3-Chlorobenzylamino)-2-((3,4-difluorophenyl)ethynyl)-9H-purin-9-yl)-2,3-dihydroxy-N-methylbicyclo[3.1.0]hexane-1-carboxamide]
agonist type at the A3AR (hA3AR [2]): full agonist

SMILES: CNC(=O)[C@@]12C[C@@H]1[C@@H](n1cnc3c(NCc4cccc(I)c4)nc(Cl)nc31)[C@H](O)[C@@H]2O [Compound 4]
Ki (mA1AR): 7.32 ± 1.5 nM
Ki (mA2AAR): 5350 nM
Ki (mA3AR): 0.8 ± 0.14 nM

— publication PMC3371665 (Journal of Medicinal Chemistry, 2012)
